Results from ChEMBL document CHEMBL4680283, “Evaluation of 1,1-cyclopropylidene as a thioether isostere in the 4-thio-thienopyrimidine (TTP) series of antimalarials” (Bioorg Med Chem, 2020).
pEC50: −log10 of the molar value.

System: Plasmodium falciparum
Experiment: Antimalarial activity against chloroquine-sensitive Plasmodium falciparum 3D7 MRA-102 infected in human erythrocytes assessed as reduction in parasite growth incubated for 72 hrs by SYBR green dye based fluorescence assay
Format: functional, organism-based
Details: 3D7 MRA-102, Erythrocyte

Structure (SMILES)	pEC50
Cc1csc(C2(c3ncnc4sccc34)CC2)n1	< 4.64
CCOC(=O)/C=C(/c1nc(C)cs1)c1ncnc2sccc12	5.16
Cc1csc(C(=O)c2ncnc3sccc23)n1	5.39
Cn1c(C2(c3ncnc4sccc34)CC2)nc2ccccc21	< 4.64
Cc1csc(Sc2ncnc3sccc23)n1	7.43
Cc1csc(C(C)(O)c2ncnc3sccc23)n1 (configuration not stated)	< 4.64
Cn1c(Sc2ncnc3sccc23)nc2ccccc21	6.72
